Measurements taken from patent US20080131475A1, “Methods of Use of Dual Ppar Agonist Compounds and Drug Delivery Devices Containing Such Compounds” (priority 2005, published 2008).

Columns and labels:
[1] = test system: restenotic lesion and arterial stenosis in stented coronary arteries; experiment: swine model of restenosis with coronary stents eluting Compound A; format: in vivo; conditions: juvenile swine, poly-n-butyl methacrylate coated stent containing 200 mg Compound A per stent, coronary artery, 7 or 28 days
Method: (§1) The treatment and/or prevention of restenosis in vivo in diabetics and non-diabetics can be evaluated as follows: • 1. The beneficial effects of a compound of the present invention on restenosis are ascertained in a swine model of restenosis. Stainless steel balloon-expandable tubular stents, 18 mm long, are coated with a thin layer of a polymer, i.e., poly-n-butyl methacrylate, containing […] of (R)-1-{4-[5-methyl-2-(4-trifluoromethyl-phenyl)-oxazol-4-ylmethoxy]-benzenesulfonyl}-2,3-dihydro-1H-indole-2-carboxylic acid (Compound A) per stent. Juvenile swine (25-35 kg) undergo placement of bare metal stents which elute Compound A in the left anterior descending, circumflex or right coronary artery. The guiding catheter is used as a reference to obtain a 1.2:1 to 1.4:1 stent-to-artery ratio compared with the baselinevessel diameter. […] At 7 days or 28 days, the animals are euthanized after completion of coronary angiography for quantitative analysis. • Immediately following euthanasia, the hearts are harvested, and the coronary arteries are perfusion-fixed with 10% buffered formalin at 60-80 mm Hg for 30 minutes via the aortic stump. […] Vessel wall expression of proliferating cell nuclear antigen (PCNA) (Santa Cruz Biotechnology), pRb (Pharmingen), monocyte chemotactic protein (MCP)-1 (R&D Systems) or interleukin (IL)-6 (R&D Systems) were evaluated by Western blot analysis. […]

[2] = test system: restenotic lesion formation and arterial stenosis in diabetic swine; experiment: diabetic swine model of restenosis; format: in vivo; conditions: streptozotocin-diabetic juvenile swine, procedure as in non-diabetic stent model
Method: as §1

[3] = drug release from coated stent pieces in PBS pH 7.4 or PEG/water; format: physicochemical; conditions: 2 cm coated stent pieces, PBS pH 7.4 or PEG 400/water 40/60 v/v, 37° C., solutions changed daily
Method: Four 2 cm pieces of coated stents as described above are placed into 100 mL of phosphate buffer solution (PBS) having a pH of 7.4. Another 4 pieces from each series are placed into 100 mL polyethylene glycol (PEG)/water solution (40/60 v/v, MW of PEG=400). The stent pieces are incubated at 37° C. in a shaker. The buffer and PEG solutions are changed daily and different assays are performed on the solution to determine the released (R)-1-{4-[5-methyl-2-(4-trifluoromethyl-phenyl)-oxazol-4-ylmethoxy]-benzenesulfonyl}-2,3-dihydro-1H-indole-2-carboxylic acid concentrations. Such assays can show a stable release of (R)-1-{4-[5-methyl-2-(4-trifluoromethyl-phenyl)-oxazol-4-ylmethoxy]-benzenesulfonyl}-2,3-dihydro-1H-indole-2-carboxylic acid from coated stents for more than 45 days. By the term “stable-release of (R)-1-{4-[5-methyl-2-(4-trifluoromethyl-phenyl)-oxazol-4-ylmethoxy]-benzenesulfonyl}-2,3-dihydro-1H-indole-2-carboxylic acid” is meant less than 10% of variation of the drug release. Controlled-release techniques used by a person skilled in the art allow an unexpected easy adaptation of the required drug release rate. […]

## Cc1oc(-c2ccc(C(F)(F)F)cc2)nc1COc1ccc(S(=O)(=O)N2c3ccccc3C[C@@H]2C(=O)O)cc1 [Compound A, (R)-1-{4-[5-methyl-2-(4-trifluoromethyl-phenyl)-oxazol-4-ylmethoxy]-benzenesulfonyl}-2,3-dihydro-1H-indole-2-carboxylic acid]
[1]
  extent of restenotic lesion and arterial stenosis: marked reduction
[2]
  extent of restenotic lesion formation and arterial stenosis: reduction
[3]
  duration of stable release from coated stents (less than 10% of variation of the drug release): more than 45 days
